# From publication PMC5445127 (Frontiers in Plant Science, 2017)
# Assays:
# [1] = molecular target: T1, ZmSIRK1 (ZmSIRK1^737-1045) (Zea mays, UniProt K7VIQ3); assay: isothermal titration calorimetry; type: binding
# T1 construct: gene ZEAMMB73_Zm00001d047570; kinase domain Ser737-Ser1045 (full length 1045 aa; KD 762-1040), E. coli BL21(DE3)-R3-pRARE2, pNIC28a-Bsa4, 6xHis tag removed by TEV; forward primer encodes S737-V-V-F-T-A-E (translated); motifs 907DYS909, 933PPE935; model residues 744-972, 977-1000, 1009-1045
# [2] = molecular target: T1, ZmSIRK1 (ZmSIRK1^737-1045); assay: isothermal titration calorimetry; co-crystal structure; type: binding
# T1 sequence (K7VIQ3 entry or part of it): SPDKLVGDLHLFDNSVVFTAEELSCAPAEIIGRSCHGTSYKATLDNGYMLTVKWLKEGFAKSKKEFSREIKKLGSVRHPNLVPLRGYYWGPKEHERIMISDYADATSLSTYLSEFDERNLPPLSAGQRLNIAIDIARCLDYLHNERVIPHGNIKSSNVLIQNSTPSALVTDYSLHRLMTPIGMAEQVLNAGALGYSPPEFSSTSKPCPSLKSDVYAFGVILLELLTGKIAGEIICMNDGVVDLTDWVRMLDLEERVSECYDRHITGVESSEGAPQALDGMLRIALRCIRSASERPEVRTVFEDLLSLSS
SMILES,Kd [1] [µM],Kd [2] [µM]
CC(C)n1nc(-c2ccc3oc(N)nc3c2)c2c(N)ncnc21 [INK 128],1.76,–
Nc1ncnc2c1ncn2[C@@H]1O[C@H](COP(=O)(O)OP(=O)(O)NP(=O)(O)O)[C@@H](O)[C@H]1O [AMP-PNP],–,2.8
Nc1ncnc2c1c(-c1cnc3[nH]ccc3c1)nn2C1CCCC1 [PP121],1.99,–
